Experimental data from BigSolDB 2.1.

Clc1ccccc1C(c1ccccc1)(c1ccccc1)n1ccnc1
Details | solubility (mole fraction)
in ethyl acetate, 283.11 K | 0.00714
in ethyl acetate, 288.17 K | 0.00838
in ethyl acetate, 293.24 K | 0.01
in ethyl acetate, 298.15 K | 0.0119
in ethyl acetate, 303.14 K | 0.0142
in ethyl acetate, 308.18 K | 0.0168
in ethyl acetate, 313.12 K | 0.0198
in ethyl acetate, 318.16 K | 0.0233
in ethyl acetate, 323.19 K | 0.0275
in isobutanol, 283.09 K | 0.0157
in isobutanol, 288.15 K | 0.0202
in isobutanol, 293.11 K | 0.0251
in isobutanol, 298.17 K | 0.0311
in isobutanol, 303.16 K | 0.0385
in isobutanol, 308.21 K | 0.0477
in isobutanol, 313.15 K | 0.0589
in isobutanol, 318.14 K | 0.0722
in isobutanol, 323.18 K | 0.0873
in isopentanol, 283.13 K | 0.0157
in isopentanol, 288.18 K | 0.0193
in isopentanol, 293.14 K | 0.0239
in isopentanol, 298.16 K | 0.0296
in isopentanol, 303.13 K | 0.0366
in isopentanol, 308.18 K | 0.045
in isopentanol, 313.12 K | 0.0548
in isopentanol, 318.15 K | 0.0668
in isopentanol, 323.19 K | 0.081
in isopropanol, 283.1 K | 0.00571
in isopropanol, 288.15 K | 0.00723
in isopropanol, 293.13 K | 0.00916
in isopropanol, 298.16 K | 0.0115
in isopropanol, 303.12 K | 0.0145
in isopropanol, 308.15 K | 0.0185
in isopropanol, 313.19 K | 0.0235
in isopropanol, 318.16 K | 0.03
in isopropanol, 323.15 K | 0.0384
in isopropyl acetate, 283.1 K | 0.00518
in isopropyl acetate, 288.16 K | 0.00615
in isopropyl acetate, 293.2 K | 0.0073
in isopropyl acetate, 298.19 K | 0.00868
in isopropyl acetate, 303.15 K | 0.0102
in isopropyl acetate, 308.12 K | 0.0121
in isopropyl acetate, 313.15 K | 0.0144
in isopropyl acetate, 318.19 K | 0.0171
in isopropyl acetate, 323.17 K | 0.0203
in methyl acetate, 283.15 K | 0.00661
in methyl acetate, 288.17 K | 0.00792
in methyl acetate, 293.1 K | 0.00953
in methyl acetate, 298.21 K | 0.0114
in methyl acetate, 303.15 K | 0.0137
in methyl acetate, 308.16 K | 0.0164
in methyl acetate, 313.12 K | 0.0196
in methyl acetate, 318.14 K | 0.0235
in methyl acetate, 323.18 K | 0.0281
in methyl propionate, 283.13 K | 0.00984
in methyl propionate, 288.17 K | 0.0117
in methyl propionate, 293.21 K | 0.0138
in methyl propionate, 298.15 K | 0.0163
in methyl propionate, 303.14 K | 0.0192
in methyl propionate, 308.17 K | 0.0227
in methyl propionate, 313.08 K | 0.0268
in methyl propionate, 318.19 K | 0.0316
in methyl propionate, 323.15 K | 0.0373
in n-butanol, 283.16 K | 0.0151
in n-butanol, 288.11 K | 0.0188
in n-butanol, 293.15 K | 0.0235
in n-butanol, 298.2 K | 0.0289
in n-butanol, 303.14 K | 0.0356
in n-butanol, 308.18 K | 0.0439
in n-butanol, 313.15 K | 0.0538
in n-butanol, 318.17 K | 0.0659
in n-butanol, 323.16 K | 0.0798
in n-butyl acetate, 283.16 K | 0.00743
in n-butyl acetate, 288.19 K | 0.00886
in n-butyl acetate, 293.14 K | 0.0104
in n-butyl acetate, 298.16 K | 0.0124
in n-butyl acetate, 303.11 K | 0.0148
in n-butyl acetate, 308.09 K | 0.0176
in n-butyl acetate, 313.25 K | 0.0211
in n-butyl acetate, 318.15 K | 0.0251
in n-butyl acetate, 323.13 K | 0.0299
in n-heptanol, 283.17 K | 0.0108
in n-heptanol, 288.14 K | 0.0151
in n-heptanol, 293.18 K | 0.0198
in n-heptanol, 298.16 K | 0.0251
in n-heptanol, 303.1 K | 0.0316
in n-heptanol, 308.15 K | 0.039
in n-heptanol, 313.19 K | 0.0474
in n-heptanol, 318.08 K | 0.0578
in n-heptanol, 323.16 K | 0.0695
in n-hexanol, 283.08 K | 0.0145
in n-hexanol, 288.13 K | 0.0185
in n-hexanol, 293.16 K | 0.0231
in n-hexanol, 298.15 K | 0.0287
in n-hexanol, 303.19 K | 0.0356
in n-hexanol, 308.14 K | 0.0432
in n-hexanol, 313.1 K | 0.053
in n-hexanol, 318.21 K | 0.064
in n-hexanol, 323.17 K | 0.0769
in n-octanol, 283.06 K | 0.0118
in n-octanol, 288.15 K | 0.0159
in n-octanol, 293.13 K | 0.0203
in n-octanol, 298.19 K | 0.0247
in n-octanol, 303.11 K | 0.0301
in n-octanol, 308.22 K | 0.0366
in n-octanol, 313.18 K | 0.0453
in n-octanol, 318.09 K | 0.0553
in n-octanol, 323.17 K | 0.0661
in n-pentanol, 283.19 K | 0.0169
in n-pentanol, 288.15 K | 0.0213
in n-pentanol, 293.13 K | 0.0269
in n-pentanol, 298.1 K | 0.0325
in n-pentanol, 303.12 K | 0.04
in n-pentanol, 308.15 K | 0.0486
in n-pentanol, 313.07 K | 0.0587
in n-pentanol, 318.14 K | 0.0707
in n-pentanol, 323.17 K | 0.085
in n-propanol, 283.15 K | 0.0144
in n-propanol, 288.12 K | 0.0172
in n-propanol, 293.14 K | 0.0213
in n-propanol, 298.18 K | 0.0263
in n-propanol, 303.16 K | 0.0327
in n-propanol, 308.15 K | 0.0405
in n-propanol, 313.11 K | 0.05
in n-propanol, 318.17 K | 0.0618
in n-propanol, 323.18 K | 0.0761
in n-propyl acetate, 283.15 K | 0.008
in n-propyl acetate, 288.14 K | 0.0095
in n-propyl acetate, 293.19 K | 0.0112
in n-propyl acetate, 298.17 K | 0.0132
in n-propyl acetate, 303.16 K | 0.0156
in n-propyl acetate, 308.12 K | 0.0185
in n-propyl acetate, 313.21 K | 0.0217
in n-propyl acetate, 318.15 K | 0.0257
in n-propyl acetate, 323.13 K | 0.0303
in sec-butanol, 283.15 K | 0.0101
in sec-butanol, 288.16 K | 0.013
in sec-butanol, 293.21 K | 0.0165
in sec-butanol, 298.18 K | 0.021
in sec-butanol, 303.13 K | 0.0267
in sec-butanol, 308.15 K | 0.0338
in sec-butanol, 313.19 K | 0.0425
in sec-butanol, 318.11 K | 0.0532
in sec-butanol, 323.14 K | 0.0657
